Entries after “also recorded” stand apart in the source; their conditions may differ.
Columns and labels:
[1] = molecular target: T1, human PNKP (hPNKP) 3'-phosphatase activity (Homo sapiens, UniProt Q96T60); assay: Fluorescence quenching-based screening assay for PNKP 3'-phosphatase activity; type: biochemical; conditions: 100 μM compound, 50 ng hPNKP
T1 construct: made in house; host or cells: bacteria (said only for the batch compared with aprataxin)
Method: The […] assay developed originally for protein kinases by QTL Biosystems (Santa Fe, N. Mex.) was modified. […] The TAMRA-labelled oligonucleotide lacking a 3'-phosphate served as a control. […] The assay was performed in 384-well white Optiplate microplates (PerkinElmer, Woodbridge, ON) in 70 mM Tris-HCl, pH 7.4, 60 mM MgCl2, 5 mM MnCl2, 0.3% BSA, 0.09% sodium azide. Reaction buffer was prepared by adding 1 mM DTT immediately prior to use. Five μL of 3'-phosphatase substrate (final concentration 0.5 μM) was used per well. In duplicate, 10 μl of each concentration of hPNKP was added per well. Plates were incubated for 1 hour at 37° C. and then 15 μl of 1× sensor solution (provided by QTL) was added to each well and incubated for 30 minutes at room temperature. Fluorescence (485 nm excitation and 520 nm emission wavelengths) of each well was read in a FLUOstar Optima® (BMG Labtech Inc, Durham, N.C.). Data were analyzed using GraphPad Prism® Software (San Diego, Calif.). […] Small molecules were provided in powder form and were dissolved in 100% DMSO and a final concentration of 100 μM was added to each well and assays were performed as described above. After obtaining an optimum calibration curve and enzyme concentration curve, a simplified form of the assay to test the library in a short time, was employed. One concentration of hPNKP, 50 ng, was tested and compared with the control well with no enzyme. The assay was conducted in the same way as described above with respect to oligonucleotides, buffer, controls, incubation lengths/temperatures, centrifugations and sensor addition. The fluorescence-based phosphatase assay adapted was originally developed to monitor protein phosphatase activity (34). This assay involves a fluorescent sensor molecule coated in trivalent metal cations which causes superquenching of the sensor signal when in close proximity to a dye (TAMRA) on the substrate. The sensor is brought close to TAMRA via the ionic bond formed between the terminal DNA phosphate and the trivalent metal cations on the sensor. Removal of the phosphate leads to an elevation of fluorescence because the sensor is not brought close enough to TAMRA for its signal to be quenched. […] Heat inactivated hPNKP was used as a control.

[2] = molecular target: T2, human PNKP kinase activity (Homo sapiens, UniProt Q96T60); assay: DNA kinase assay; type: biochemical
T2 construct: made in house; host or cells: bacteria (said only for the batch compared with aprataxin)
Method: Reaction mixtures (20 μl) containing kinase buffer (80 mM succinic acid (pH 5.5), 10 mM MgCl2, and 1 mM DTT), 100 μM 20-mer oligonucleotide substrate, 3.3 pmol of [γ-32P]ATP, A12B4C3 (0-50 μM) in 2 μl DMSO, and 1 μg of PNK were incubated at 37° C. for 20 minutes. The reaction was stopped by addition of an equal volume of DNA loading dye (90% formamide, 0.02% bromophenol blue, 0.02% xylene cyanol in 1×TBE). Samples were boiled for 5 minutes and the products separated on a 12% polyacrylamide/8 M urea gel. Gels were scanned with a Typhoon 9400 Variable Mode Imager (GE Healthcare), and quantified using Image Quant 5.2 Software (GE Healthcare).
The effect of A12B4C3 on the kinase activity of human PNKP was examined by quantifying the transfer of ^32P-labeled phosphate from radiolabeled ATP to an oligonucleotide. […] However, the inhibition of the kinase and phosphatase activities cannot be directly compared because the standard assay for kinase activity uses ten-fold more enzyme than the assay for phosphatase activity

A549 cells [3] = assay: Cell proliferation (MTS) assay, compound alone; type: cell-based, human; conditions: 72 hours
Method: (§1) To determine the effect of the inhibition of PNKP by small molecule inhibitors on cell proliferation we used the CellTiter 96™ AQueous Non-Radioactive Cell Proliferation Assay (Promega, Madison Wis.), better known as the MTS assay. Approximately 2.5×10^3 A549 cells were plated in triplicate in a 96-well plate with different concentration of A12B4C3. After 72 hours, 20 μl of CellTiter 96 Aqueous One Solution Reagent was added to each well and cells were incubated for 4 more hours at 37° C. The absorbance recorded at 490 nm was used as the number of living cells in culture (FLUOstar Optima, BMG Labtechnologies).
(§2) A12B4C3 was first tested for inherent toxicity. Cytotoxicity was measured by cell proliferation assay after exposure of A549 human lung adenocarcinoma cells and MDA-MB-231 cells to different doses of the compound for 72 hours (FIG. 6A). A dose-dependent reduction in cell proliferation up to 50% at 100 μM A12B4C3 was observed. […] While not wishing to be bound by theory, this may be indicative of a maximal level of drug uptake. No effect on cell proliferation was detected after exposure to 1 μM A12B4C3.

MDA-MB-231 cells = assay: Cell proliferation (MTS) assay, compound alone; type: cell-based, human; conditions: 72 hours
Method: as §1, §2

A549 cells [4] = assay: Chemosensitization to camptothecin, clonogenic survival assay; type: cell-based, human; conditions: 1 mM A12B4C3 2 hours before camptothecin, further 24 hours, wild type A549
Method: The effect of hPNKP inhibition by A12B4C3 on cellular survival following exposure to the topoisomerase I poison, camptothecin, was measured in A549 and A549δPNKP cells by the clonogenic survival assay (colony forming assay). Cells were seeded on 60-mm tissue culture plates at various concentrations to give between about 100-1000 colonies per plate and returned to the incubator overnight to allow the cells to attach. For chemosensitization studies, the cells were incubated with or without 1 mM A12B4C3 for 2 hours before addition of camptothecin and then exposed to increasing doses of camptothecin (Sigma). After addition of the topoisomerase I poison, cells were incubated for a further 24 hours in the same media and then washed twice with phosphate-buffered saline (PBS) and incubated in fresh media without the inhibitor. Colonies were stained with crystal violet after 10 to 14 days and counted with an automated Colcount colony counter (Oxford Optronix, Oxford, UK).
The capacity of A12B4C3 to act as a chemosensitizer was then examined. […] Colonies were stained with crystal violet after 10 to 14 days and counted with an automated Colcount colony counter (Oxford Optronix, Oxford, UK).

## CCCCCCCCCCC(O)C1C=CC2C(=O)N(c3ccccc3)C(=O)C2N1Nc1ccc([N+](=O)[O-])cc1 (centres unmarked) [Compound A12B4C3, 2-(1-hydroxyundecyl)-1-(4-nitrophenylamino)-6-phenyl-6,7a-dihydro-1H-pyrrolo[3,4-b]pyridine-5,7(2H,4aH)-dione]
[1]
  inhibition of hPNKP phosphatase activity (substrate dephosphorylation) in the screening assay: significant inhibition; also recorded: marked inhibition
[2]; 1 μM
  inhibition at 1 µM: ~16%
[2]; 50 μM
  reduction of human PNKP kinase activity: ~30%
A549 cells [3]; 1 μM
  effect on cell proliferation: No effect
A549 cells [3]; 100 μM
  reduction in cell proliferation: up to 50%
MDA-MB-231 cells; 1 μM
  effect on cell proliferation: No effect
MDA-MB-231 cells; 100 μM
  reduction in cell proliferation: up to 50%
A549 cells [4]
  chemosensitization to camptothecin: effectively sensitized
